Source: PMC10298982, “Stability Characterization of the Novel Anti-Cancer HM-10/10 HDL-Mimetic Peptide” (International Journal of Molecular Sciences, 2023)
Where two headings read alike, the source gives them in different places.

How the values were obtained:
[1] = Stability in potassium phosphate buffers of pH 1.3, 5.5 and 7.4; type: physicochemical; conditions: potassium phosphate buffer; for remaining at 1 h, 2 µM: read-out: % Remaining at 60 min
Experimental: The stability of HM-10/10 under varying pH conditions was determined by adding the compound to potassium phosphate buffers of pH 1.3 (acidic), 5.5 (slightly acidic), and 7.4 (physiological pH), with 7-Ethoxycoumarin used as a control article. Under acidic and slightly acidic conditions, the half-life of HM-10/10 could not be determined, as the percentage of HM-10/10 was higher at the end of the time course than at the beginning (Table 3, Figure 3). […] Samples were tested at 2 µM.
The instrument was equipped with an electrospray ionization source (600 °C) operated in the positive-ion mode.

[2] = in vitro; conditions: human, plasma, pH 7.4
Experimental: (§7) The supernatant was removed and incubated at 37 °C for at least 10 min before use. The pH of each matrix was checked and adjusted to pH 7.4 using 10% phosphoric acid or 1 N sodium hydroxide as necessary.
(§8) Test and control article stock solutions were spiked (1.5 µL) into matrix (0.749 mL) to a final assay concentration of 2 µM and mixed. […] These tubes were sealed and incubated at 37 °C with shaking.
(§9) The quenched samples were mixed briefly by vortexing and stored in a −20 °C freezer.
(§10) Sample plates were stored refrigerated until analysis.
(§11) The column was set to a temperature of 55 °C. […] The instrument was equipped with an electrospray ionization source (500 °C) operated in positive-ion mode.
(§12) Peak area ratios for IS-normalized test article and control article counts were used to calculate the percent remaining relative to the time zero (T0) value. As appropriate, results were plotted and further analyzed to calculate half-life (T1/2) values.
(§13) Mean peak ratios were used to calculate the percent remaining relative to the T0 value: % Remaining at Timex = (mean peak area ratio Tx/mean peak ratio T0) × 100.

[3] = in vitro; conditions: Sprague-Dawley, rat, plasma, pH 7.4
Experimental: as §7, §8, §9, §10, §11, §12, §13

[4] = in vitro; conditions: beagle, dog, plasma, pH 7.4
Experimental: as §7, §8, §9, §10, §11, §12, §13

[5] = in vitro; conditions: cynomolgus monkey, plasma, pH 7.4
Experimental: as §7, §8, §9, §10, §11, §12, §13

[6] = in vitro; conditions: CD-1, mouse, plasma, pH 7.4
Experimental: as §7, §8, §9, §10, §11, §12, §13

[7] = tested on: CYP1A2; experiment: CYP1A2 induction (mRNA expression) in single-donor human hepatocytes; type: in vitro ADME; conditions: 50 µM (control)
Experimental: (§1) RNA isolation and quantification: E-Z 96 Total RNA Kit (Omega Bio-tek, Catalog No. R1034-02) was used for RNA isolation and Quant-iT RNA assay kit (ThermoFisher, Catalog No. Q33140) was used for RNA quantification. The plates were removed from a −80 °C freezer and equilibrated to room temperature. RNA was extracted using the manufacturer’s recommended protocol. Eighty-one microliters of 100% ethanol were added into each well containing 150 µL of lysed sample to make a final ethanol concentration at 35%.
(§2) cDNA generation: For cDNA generation, a High-Capacity cDNA Reverse Transcription Kit (Applied Biosystems, Catalog No. 4319983) and QuantStudio 3 PCR system (Applied Biosystems) were used. In this step, 2X Reverse Transcription Master Mix was prepared using the contents of the kit. Then, 10 µL of total RNA was added to 10 µL of 2X Reverse Transcription Master Mix in a microplate and the plate was sealed. This plate was then run in a thermocycler to generate cDNA.
(§3) Real time PCR: SsoAdvanced Universal SYBR® Green Supermix (BIO-RAD, Catalog No. 172-5270) and the QuantStudio 3 Real-Time PCR system (Applied Biosystems) were used to perform real-time PCR on the generated cDNA. In this step, a PCR mix was prepared using PCR Supermix, SYBR® primers for the targeted genes, and nuclease-free water. Two microliters of ten-fold diluted cDNA samples (5 µL of cDNA into 45 μL of nuclease-free water) were added to 8 µL of PCR Mix in a microplate and sealed. This plate was then run through the Real-Time PCR system to generate the mRNA expression data.
(§4) • Human GAPDH • F: […] • R: […] • Human CYP1A2 • Unique Assay ID: qHsaCID0015160 • Chromosome Location: 15:75045562-75047256 • Human CYP2B6 • F: […] • R: […] • Human CYP3A4 • F: […] • R: […]

[8] = molecular target: T1, CYP2C19 (Homo sapiens, UniProt P33261)
T1 sequence (P33261 whole entry): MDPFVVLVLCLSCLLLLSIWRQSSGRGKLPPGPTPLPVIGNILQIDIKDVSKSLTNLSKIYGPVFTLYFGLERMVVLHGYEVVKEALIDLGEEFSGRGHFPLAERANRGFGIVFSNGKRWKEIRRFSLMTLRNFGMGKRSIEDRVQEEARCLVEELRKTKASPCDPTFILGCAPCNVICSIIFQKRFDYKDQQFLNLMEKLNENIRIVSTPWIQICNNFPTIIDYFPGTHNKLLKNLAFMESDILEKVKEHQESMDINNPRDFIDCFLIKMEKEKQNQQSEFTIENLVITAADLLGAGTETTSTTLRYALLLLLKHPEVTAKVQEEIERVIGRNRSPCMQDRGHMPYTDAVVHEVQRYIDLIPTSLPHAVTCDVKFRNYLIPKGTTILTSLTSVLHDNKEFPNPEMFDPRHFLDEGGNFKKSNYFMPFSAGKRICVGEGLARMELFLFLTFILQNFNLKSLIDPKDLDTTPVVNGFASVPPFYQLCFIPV

[9] = molecular target: T1, CYP2C19; experiment: in vitro; conditions: both, microsomes
[10] = molecular target: T1, CYP2C19; experiment: CYP450 time-dependent inhibition, CYP2C19, pooled human liver microsomes; conditions: Mephenytoin (2C19)
[11] = molecular target: T2, CYP2D6 (Homo sapiens, UniProt P10635)
T2 sequence (P10635 whole entry): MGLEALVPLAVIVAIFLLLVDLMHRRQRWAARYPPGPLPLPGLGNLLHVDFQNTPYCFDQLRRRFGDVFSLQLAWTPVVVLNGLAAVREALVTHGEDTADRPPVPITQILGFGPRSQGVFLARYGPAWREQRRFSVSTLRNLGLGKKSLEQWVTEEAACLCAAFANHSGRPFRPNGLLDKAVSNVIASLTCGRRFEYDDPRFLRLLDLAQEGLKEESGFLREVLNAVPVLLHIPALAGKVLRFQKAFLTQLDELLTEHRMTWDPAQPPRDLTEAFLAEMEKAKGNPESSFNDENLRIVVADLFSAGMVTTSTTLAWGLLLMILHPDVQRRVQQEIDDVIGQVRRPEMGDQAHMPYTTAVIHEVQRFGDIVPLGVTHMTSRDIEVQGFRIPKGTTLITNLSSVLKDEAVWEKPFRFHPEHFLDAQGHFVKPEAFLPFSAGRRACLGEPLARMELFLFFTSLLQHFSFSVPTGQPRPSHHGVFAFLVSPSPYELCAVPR

[12] = molecular target: T2, CYP2D6; experiment: in vitro; conditions: both, microsomes
[13] = tested on: CYP2B6; experiment: CYP2B6 induction (enzyme activity) in single-donor human hepatocytes; conditions: 1000 µM (positive control)
Experimental: The transport medium was replaced with 200 μL of warm (37 °C) incubation medium (InVitroGRO HI, BioIVT Catalog No. Z99009) and the plate was placed in a humidified 5% carbon dioxide incubator at 37 °C for 24 h.
In addition, test article vehicle (PBS) was added to warm (37°C) InVitroGRO HI Medium in a 5:95 (v:v) ratio. […] The plates were removed from the incubator and the hepatocytes were prepared for the induction assay by replacing the cell culture medium with medium containing either the test article, a control inducer, or vehicle control (200 µL per well). The hepatocyte plates were returned to the cell culture incubator and incubated for 24 h.
On Day 3, induction was repeated following the same steps as described above for the previous day, and plates were returned to the cell culture incubator for an additional 24 h.
After aliquots were taken to measure test article stability, all the remaining medium from each well in the hepatocyte plate was removed, all wells were washed once using 200 μL of blank assay buffer, and then 100 μL of the 1000-fold diluted substrate solutions were added to the appropriate wells. The assay plate was returned to the humidified 5% carbon dioxide incubator at 37 °C for 1 h incubation.
At the end of the incubation time, 100 μL of mRNA lysis buffer was added to each well to stop the reaction. Fifty microliters of this reaction mixture were transferred into a new plate and quenched with 200 μL of ice-cold acetonitrile containing a CYP-specific stable labeled internal standard (250 ng/mL acetaminophen-d4, 250 ng/mL hydroxybupropion-d6, or 250 ng/mL hydroxytestosterone-d3). After removal of the aliquots from the plate for enzyme activity determination, the assay plates were sealed and stored in a −70 °C freezer until use for RT-PCR, mRNA analysis.
For the induction assay samples, an aliquot (50 µL) of the supernatant was transferred to a new plate and diluted with 100 µL Milli-Q water. For the test article stability samples, an aliquot (50 µL) of the supernatant was transferred to a new plate and diluted with 60 µL 0.1% formic acid in Milli-Q water. These samples for the enzyme activity assay and article stability test were refrigerated for storage until analysis. […]
HM1010: Induction Potential of Cytochrome P450 Enzymes
(CYP1A2, CYP2B6 and CYP3A4) Using Human Cryopreserved Hepatocytes
Testing Facility Study No.
The purpose of this in-vitro study was to determine the induction potential of HM1010 on human
cytochrome P450 (CYP) isoenzyme (1A2, 2B6 and 3A4) activity. The study design is
Matrix: Inducible cryopreserved human hepatocytes three single-donor lots
Assay Buffer: InVitroGRO KHB
Substrates: Phenacetin (1A2), Bu propion (2B6), and Testosterone (3A4)
Assay conditions: 48 hours at 37°C in humidified 5% carbon dioxide incubator
Analysis: LC-MS/MS (enzyme activity) and mRNA analysis

[14] = tested on: CYP2B6; experiment: CYP2B6 induction (mRNA expression) in single-donor human hepatocytes; type: in vitro ADME; conditions: 1000 µM (control)
Experimental: as §1, §2, §3, §4

[15] = Stability in simulated gastric fluid (SGF); type: in vitro ADME; conditions: SGF pH 1.3
Experimental: (§5) When developing any potentially oral-route pharmaceutical agent, the denaturing and pepsin-rich environment of the stomach must be considered. The stability of HM-10/10 was tested in simulated gastric fluid (SGF) and simulated intestinal fluid (SIF) over 120 min. […] Samples were tested at 2 μM.
(§6) For the HM-10/10 stability assay in simulated gastric and intestinal fluids, propantheline was used to confirm retention time and carbutamide was used as the internal standard for calculations.

[16] = Stability in simulated intestinal fluid (SIF); type: in vitro ADME; conditions: simulated intestinal fluid (SIF), SIF pH 5.5
Experimental: as §5, §6

[17] = molecular target: T3, CYP2C8 (Homo sapiens, UniProt P10632); experiment: CYP450 time-dependent inhibition, CYP2C8, pooled human liver microsomes; conditions: Amodiaquine (2C8)
T3 sequence (P10632 1-490): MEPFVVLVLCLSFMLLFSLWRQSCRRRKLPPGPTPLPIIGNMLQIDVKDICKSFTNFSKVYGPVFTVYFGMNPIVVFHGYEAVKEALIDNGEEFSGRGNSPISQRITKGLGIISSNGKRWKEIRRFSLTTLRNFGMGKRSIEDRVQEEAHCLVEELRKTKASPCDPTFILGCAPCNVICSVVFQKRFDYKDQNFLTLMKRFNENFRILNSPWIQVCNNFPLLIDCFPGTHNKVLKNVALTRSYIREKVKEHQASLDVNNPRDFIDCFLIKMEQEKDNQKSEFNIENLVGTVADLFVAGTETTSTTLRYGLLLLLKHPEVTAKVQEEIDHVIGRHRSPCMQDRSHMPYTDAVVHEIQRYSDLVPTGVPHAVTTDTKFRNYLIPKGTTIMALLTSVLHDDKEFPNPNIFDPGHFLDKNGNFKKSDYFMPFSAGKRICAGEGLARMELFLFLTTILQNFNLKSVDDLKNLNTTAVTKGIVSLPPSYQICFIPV

[18] = molecular target: CYP2C9 (Homo sapiens, UniProt P11712)
Sequence of CYP2C9 (P11712 whole entry): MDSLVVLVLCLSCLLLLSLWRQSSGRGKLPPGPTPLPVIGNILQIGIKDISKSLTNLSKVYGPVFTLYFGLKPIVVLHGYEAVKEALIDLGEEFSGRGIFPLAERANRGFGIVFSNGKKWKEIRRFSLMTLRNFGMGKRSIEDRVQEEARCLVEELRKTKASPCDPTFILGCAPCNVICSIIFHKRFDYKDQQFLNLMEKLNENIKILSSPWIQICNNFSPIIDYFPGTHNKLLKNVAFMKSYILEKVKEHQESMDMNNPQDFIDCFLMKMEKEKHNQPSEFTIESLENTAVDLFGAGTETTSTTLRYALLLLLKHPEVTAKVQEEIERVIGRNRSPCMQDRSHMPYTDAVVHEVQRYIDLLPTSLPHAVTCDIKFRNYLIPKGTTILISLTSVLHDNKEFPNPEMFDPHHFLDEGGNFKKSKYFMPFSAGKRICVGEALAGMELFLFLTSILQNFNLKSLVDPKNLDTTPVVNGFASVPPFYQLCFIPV

[19] = pH 7.4, % Inhibition at 50 µM No PI + NADPH
[20] = pH 7.4, % Inhibition at 50 µM No PI − NADPH
[21] = pH 7.4, % Inhibition at 50 µM PI + NADPH
[22] = pH 7.4, % Inhibition at 50 µM PI − NADPH
[23] = both, human, microsomes, pH 7.4

CCOc1ccc2ccc(=O)oc2c1 [7-Ethoxycoumarin, reference compound]
half-life at 2 µM ([1]; Acidic (pH 1.3)): 13.5 h
remaining at 1 h, 2 µM ([1]; Acidic (pH 1.3)): 89%
half-life at 2 µM ([1]; Physiological pH (pH 7.4)): 11.8 h
remaining at 1 h, 2 µM ([1]; Physiological pH (pH 7.4)): 87.5%
half-life at 2 µM ([1]; Slightly Acidic (pH 5.5)): 16.5 h
remaining at 1 h, 2 µM ([1]; Slightly Acidic (pH 5.5)): 90%

CC[C@H](C)C(=O)O[C@H]1C[C@@H](C)C=C2C=C[C@H](C)[C@H](CC[C@@H]3C[C@@H](O)CC(=O)O3)[C@H]21 [Lovastatin, lovastatin]
half-life at 2 µM [2]: 10.8 h
remaining at 2 h, 2 µM [2]: 81.1%
half-life at 2 µM [3]: 0.138 h
half-life at 2 µM [4]: 7.42 h
remaining at 2 h, 2 µM [4]: 73.2%
half-life at 2 µM [5]: > 2 h
remaining at 2 h, 2 µM [5]: 115%
half-life at 2 µM [6]: 0.24 h

COc1ccc2[nH]c([S+]([O-])Cc3ncc(C)c(OC)c3C)nc2c1 (stereo not shown) [Omeprazole, omeprazole]
Comments (mRNA induction) [7]: Induced as Expected
Comments (time-dependent inhibition) [8]: +TDI
inhibition at 30 min, 50 µM [9, 19]: 92.9%
inhibition at 30 min, 50 µM [9, 20]: 93.1%
inhibition at 30 min, 50 µM [9, 21]: 95.8%
inhibition at 30 min, 50 µM [9, 22]: 90.7%
IC50 ([10]; IC50 (µM) No PI + NADPH, No PI + NADPH): 4.77 µM
IC50 ([10]; IC50 (µM) No PI − NADPH, No PI − NADPH): 5.39 µM

Fc1ccc([C@@H]2CCNC[C@H]2COc2ccc3c(c2)OCO3)cc1 [Paroxetine, paroxetine]
Comments (time-dependent inhibition) [11]: +TDI
inhibition at 30 min, 50 µM [12, 19]: 99%
inhibition at 30 min, 50 µM [12, 20]: 99.1%
inhibition at 30 min, 50 µM [12, 21]: 100%
inhibition at 30 min, 50 µM [12, 22]: 99%

CCC1(c2ccccc2)C(=O)NC(=O)NC1=O [Phenobarbital, phenobarbital, reference compound]
Fold Increase (Enzyme Activity) Lot HH1086 [13]: 11.8 fold
Fold Increase (Enzyme Activity) Lot HH1142 [13]: 21.4 fold
Fold Increase (Enzyme Activity) Lot HH1144 [13]: 7.23 fold
Fold Increase (Enzyme Activity) Mean ([13]; mean of three lots): 13.5 fold
Comments (mRNA induction) [14]: Induced as Expected
Fold Increase (mRNA Expression) Lot HH1086 [14]: 15.5 fold
Fold Increase (mRNA Expression) Lot HH1142 [14]: 22.3 fold
Fold Increase (mRNA Expression) Lot HH1144 [14]: 7.54 fold
Fold Increase (mRNA Expression) Mean of 3 Lots [14]: 15.1 fold

CC(C)[N+](C)(CCOC(=O)C1c2ccccc2Oc2ccccc21)C(C)C [Propantheline, propantheline]
half-life at 2 µM [15]: 8.7 h
half-life at 2 µM [16]: 13.6 h
half-life at 2 µM [2]: 0.76 h
remaining at 2 h, 2 µM [2]: 13.3%
half-life at 2 µM [3]: 77.5 h
remaining at 2 h, 2 µM [3]: 95%
half-life at 2 µM [4]: 4.1 h
remaining at 2 h, 2 µM [4]: 65.7%
half-life at 2 µM [5]: 11.1 h
remaining at 2 h, 2 µM [5]: 80.3%
half-life at 2 µM [6]: 1.17 h
remaining at 2 h, 2 µM [6]: 27%

O=c1c(O)c(-c2ccc(O)c(O)c2)oc2cc(O)cc(O)c12 [Quercetin, quercetin]
Comments (time-dependent inhibition) [17]: No TDI
% Inhibition at 50 µM No PI + NADPH ([17]; 50 µM, No PI + NADPH): 100.5%
% Inhibition at 50 µM No PI − NADPH ([17]; 50 µM, No PI − NADPH): 100.9%
% Inhibition at 50 µM PI + NADPH ([17]; 50 µM, PI + NADPH): 100.8%
% Inhibition at 50 µM PI − NADPH ([17]; 50 µM, PI − NADPH): 100.5%

Nc1ccc(S(=O)(=O)Nc2ccnn2-c2ccccc2)cc1 [Sulfaphenazole, sulfaphenazole]
Comments (time-dependent inhibition) [18]: No TDI
% Inhibition at 50 µM No PI + NADPH [18, 23]: 99.2%
% Inhibition at 50 µM No PI − NADPH [18, 23]: 99.1%
% Inhibition at 50 µM PI + NADPH [18, 23]: 99.7%
% Inhibition at 50 µM PI − NADPH [18, 23]: 99.9%
